Values quoted from earlier work in patent US20240058331A1, “COMBINATION THERAPIES FOR TREATMENT OF CIRRHOSIS WITH PORTAL HYPERTENSION” (priority 2022, published 2024).

Experiments:
[1] = sedation for HVPG assessment
[2] = unlikely to be clinically relevant with standard midazolam dosing
[3] = moderate hepatic impairment vs healthy control participants; expected
ETB = target: T1, ETB (Homo sapiens, UniProt P24530); conditions: up to 50 mM
T1 sequence (P24530 27-442): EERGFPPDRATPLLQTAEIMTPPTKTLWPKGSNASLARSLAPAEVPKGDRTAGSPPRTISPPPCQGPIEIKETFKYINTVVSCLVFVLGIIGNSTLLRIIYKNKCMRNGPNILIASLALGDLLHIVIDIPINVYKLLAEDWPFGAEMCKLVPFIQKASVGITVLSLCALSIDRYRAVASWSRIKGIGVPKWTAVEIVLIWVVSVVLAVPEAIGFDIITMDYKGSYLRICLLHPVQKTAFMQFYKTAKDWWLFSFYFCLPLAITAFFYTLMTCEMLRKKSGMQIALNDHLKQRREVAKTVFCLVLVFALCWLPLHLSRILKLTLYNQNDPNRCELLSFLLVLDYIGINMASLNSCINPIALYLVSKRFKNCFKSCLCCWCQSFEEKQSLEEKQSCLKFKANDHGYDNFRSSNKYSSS

Structure (SMILES): CCOc1ccc(Cc2cc([C@@H]3O[C@H](CO)[C@@H](O)[C@H](O)[C@H]3O)ccc2Cl)cc1 [Dapagliflozin]
- safety or tolerability signals in participants with renal impairment (10 mg once daily, chronic kidney disease (DAPA-CKD) and heart failure (DAPA HF) populations): did not lead to any unique safety or tolerability signals
- tolerability in healthy volunteers (doses up to 100 mg for 14 days): tolerable

Structure (SMILES): Cc1ncc2n1-c1ccc(Cl)cc1C(c1ccccc1F)=NC2 [Midazolam]
- influence on HVPG [1]: does not influence HVPG

Structure (SMILES): COc1nc(C)cnc1NS(=O)(=O)c1cccnc1-c1ccc(-c2nnco2)cc1 [Zibotentan]
- increase in midazolam exposure [2]: 20%
- exposure, times higher in participants with moderate hepatic impairment compared to healthy control participants [3]: 1.45 times
- effect at the ETB (ETB): no effect
